How the values were obtained:
[1] = tested on: patients suffered from metabolic syndrome; experiment: Clinical treatment of patients suffered from metabolic syndrome; format: in vivo, human; settings: X ± S
Description: Eighty-eight metabolic syndrome patients were selected from those received treatment in Linyi People's Hospital from May 2007 to May 2008, and randomly divided into a control group and an experimental group.
Control group: twenty-eight males and sixteen females, whose ages were between 62 and 71 and whose body mass indexes (BMI) were between 25.5 and 30;
Experimental group: twenty-four males and twenty females, whose ages were between 60 and 70 and whose body mass indexes (BMI) were between 24.5 and 31;
Before the treatment, all patients were subjected to blood lipids (including total cholesterol (TC), high-density lipid cholesterol (HDLC)) analysis, and detection of glycated hemoglobin (HbAlC), fasting blood glucose (FBG), fasting insulin (FINS) and fibrinogen (Fg).
Patients suffered from metabolic syndrome were selected according to the diagnostic standards for type-II diabetes mellitus and hypertension made by WHO in 1999 and referring to the diagnostic standards for metabolic syndrome made by US National Cholesterol Education Program Adult Treatment Panel (NCEP-ATP III) in 2000, while cases of […], heart failure (above grade II), diseases in liver, kidney and blood system and like were excluded.
Patients in the control group were administrated with 15 mg of pioglitazone once every day, and patients in the experimental group were administrated with 5 mg of amlodipine, 7.5 mg of pioglitazone and 5 mg of rosuvastatin calcium, i.e. the proportions as described in Example 1, once every day. After eight weeks of continuous treatment, all of the above parameters were re-determined, in which blood glucose was determined with hexokinase method, blood lipid was determined with esterase method, fibrinogen was determined with coagulation method and chromogenic substrate assay, HbAlC was determined with chromatography, and fasting insulin was determined with chemiluminescence immunoassay.
Statistical analysis: SPSS software was employed, and test of significance was performed by using a paired sample t test.

[2] = tested on: spontaneously hypertensive rats; experiment: Urinary microalbumin (bromophenol blue absorbance) in spontaneously hypertensive rats; format: in vivo, rat; settings: intragastric once daily, high sugar and high fat diets, doses per group b107-b111; twelve-hour overnight urine; week not stated; X ± S, n = 8
Description: (§1) Model control group: intragastric administration of same volume of physiological saline;

[3] = tested on: spontaneously hypertensive rats; experiment: Tail arterial blood pressure of conscious spontaneously hypertensive rats; format: in vivo, rat; settings: X ± S, n = 8
Experimental: (§2) Forty-eight spontaneously hypertensive rats (male, body weight (300±20) g, provided by Pharmacological Center for New Medicine of Shandong New Time Pharmaceutical Co., Ltd.) were fed for one week for acclimation, and then randomly divided into six groups with eight animals in each group.
as §1
(§3) P group: 1 mg/(kg·d) of pioglitazone;
(§4) A+R group: 2 mg/(kg·d) of amlodipine+1 mg/(kg·d) of rosuvastatin calcium;
(§5) P+R group: 1 mg/(kg·d) of pioglitazone+1 mg/(kg·d) of rosuvastatin calcium;
(§6) Pharmaceutical composition of the present invention: 2 mg/(kg·d) of amlodipine+1 mg/(kg·d) of pioglitazone+1 mg/(kg·d) of rosuvastatin calcium;
(§7) Each group was given intragastric administration once every day for ten weeks. During the experiment, the diet, survival status and behaviors of the animals were recorded, and the animals were weighted once every day and the doses of administration were adjusted according to the body weights. Animals were sacrificed after ten weeks, and their hearts were taken out to determine the weights of left ventricles and calculate left ventricular indexes.
Blood pressures were measured five times between two and five hours after intragastric administration in the first week, the third week and the sixth week, respectively. The average value of the blood pressures was used as the blood pressure of the sample.

[4] = tested on: spontaneously hypertensive rats; experiment: Cardiac hypertrophy (left ventricular weight/body weight) in spontaneously hypertensive rats; format: in vivo, rat; settings: after ten weeks of intragastric administration once daily; X ± S, n = 8
Experimental: as §2, §1, §3, §4, §5, §6, §7
After being sacrificed with 10% potassium chloride (2 mmol/L, 1 ml/rat), the rats were weighed. […] The left ventricular was weighed after the atria were removed, and a ratio of left ventricular weight to body weight was calculated.

[5] = tested on: spontaneously hypertensive rats; experiment: Carotid intima-media thickness in spontaneously hypertensive rats; format: in vivo, rat; settings: carotid artery; intragastric once daily for six months, high sugar and high fat diets; X ± S, n = 8
Experimental: Forty-eight spontaneously hypertensive rats (male, body weight (300±20) g, provided by the Pharmacological Center for New Medicine of Shandong New Time Pharmaceutical Co., Ltd.) were fed for one week for acclimation, and then randomly divided into six groups with eight rats in each group.
as §1
P group: intragastric administration of 2 mg/(kg·d) of pioglitazone;
LA+R group: intragastric administration of 1 mg/(kg·d) of levo-amlodipine+1 mg/(kg·d) of rosuvastatin calcium;
P+R group: intragastric administration of 2 mg/(kg·d) of pioglitazone+1 mg/(kg·d) of rosuvastatin calcium;
LA group: intragastric administration of 1 mg/(kg·d) of levo-amlodipine;
Pharmaceutical composition of the present invention: intragastric administration of 1 mg/(kg·d) of levo-amlodipine+2 mg/(kg·d) of pioglitazone+1 mg/(kg·d) of rosuvastatin calcium;
Each group was given intragastric administration once every day and fed with high sugar and high fat diets for six months. During the experiment, the diet, survival status and behaviors of the animals were recorded, and the animals were weighed once every week and the doses of administration were adjusted according to the body weights.
After the animal was anesthetized and fixed, Even's blue (60 mg/kg) dye was injected via a femoral artery. […]

calcium channel = settings: background statement; cited from earlier work
[6] = intragastric once daily, 2-5 h after administration

| Compound | FINS (fasting insulin), after treatment ([1]; after eight weeks, once every day, chemiluminescence immunoassay) [mlU/L] | HbAlC (glycated hemoglobin), after treatment ([1]; after eight weeks, once every day, chromatography) [%] | Fg (fibrinogen), after treatment ([1]; after eight weeks, once every day, coagulation method and chromogenic substrate assay) [mg/dL] | FBG (fasting blood glucose), after treatment ([1]; after eight weeks, once every day, hexokinase method) [mmol/L] | FINS (fasting insulin), before treatment ([1]; baseline before treatment, chemiluminescence immunoassay) [mlU/L] | HbAlC (glycated hemoglobin), before treatment ([1]; baseline before treatment, chromatography) [%] | Fg (fibrinogen), before treatment ([1]; baseline before treatment, coagulation method and chromogenic substrate assay) [mg/dL] | FBG (fasting blood glucose), before treatment ([1]; baseline before treatment, hexokinase method) [mmol/L] | Urinary microalbumin, Absorbance A (600 nm) [2] | Blood pressure, before treatment ([3]; baseline before treatment) [mmHg] | Blood pressure after treatment, first week [3, 6] [mmHg] | Blood pressure after treatment, sixth week [3, 6] [mmHg] | Blood pressure after treatment, third week [3, 6] [mmHg] | Left ventricular weight [4] [g] | Left ventricular weight/body weight (×10^−3) [4] | Maximum intima thickness [5] [mm] | Ratio of intima to media thickness [5] | Activity relative to the dextroisomer (calcium channel) [times] | Activity relative to the racemate (calcium channel) |
| --- | --- | --- | --- | --- | --- | --- | --- | --- | --- | --- | --- | --- | --- | --- | --- | --- | --- | --- | --- |
| CCc1ccc(CCOc2ccc(CC3SC(=O)NC3=O)cc2)nc1 (stereo not shown) [P group, pioglitazone] | 25.68 ± 5.34 | 6.39 ± 0.56 | 392.6 ± 64.51 | 6.63 ± 1.65 | 32.4 ± 7.21 | 6.89 ± 0.65 | 419.6 ± 89.62 | 7.12 ± 2.06 | 0.568 ± 0.125^• | 151 ± 7.6 | 157 ± 8.6 | 170 ± 8.8 | 162 ± 10.3 | 0.99 ± 0.10 | 3.33 ± 0.19 ×10^−3 | 0.130 ± 0.026 | 2.246 ± 0.361 |  |  |
| levo-amlodipine [A Group] |  |  |  |  |  |  |  |  |  |  |  |  |  |  |  |  |  | 1000 | twice as high as that of the racemate |
